Reference: US20140271606A1, “METHODS OF USING ADENOSINE RECEPTOR ANTAGONISTS FOR TREATING BLEEDING DISORDERS” (Bayer HealthCare LLC, priority 2013, published 2014)

Tests used:
Hemophilia A mice = experiment: Tail cut blood loss in Hemophilia A mice; format: in vivo; conditions: 30 min bleeding
Experimental: In this Example, the effect of administering an adenosine receptor antagonist on reduction in blood loss in mice with Hemophilia A and Hemophilia B mice was analyzed. Male Hemophilia A or Hemophilia B mice, approximately eight to nine weeks of age and weighing, on average, approximately 25 grams, were used in this Example. The mice were anesthetized with isoflurane and the tails were placed in approximately 37-38° C. warmed 15-ml plastic tubes including 0.9% (by weight) saline for 10 minutes. The tails were then cut at 4 mm from the tip by scalpel and immediately placed back into separate pre-warmed (37-38° C.) 15-ml plastic tubes containing 10 ml of 0.9% (by weight) saline. Each mouse was allowed to bleed freely for 30 minutes. The adenosine 2a and 2b receptor antagonist, 4-(2-[7-Amino-2-(2-furyl)[1,2,4]triazolo[2,3-a][1,3,5]triazin-5-ylamino]ethyl)phenol (commercially available as ZM241385 from Tocris Bioscience, United Kingdom), was used in this Example. In a first sample group, ZM241385 was dissolved in 100% DMSO. In a second sample group, ZM241385 was dissolved in PEG400/ethanol/water (40/10/50 v/v/v). In a third sample group, ZM241385 was dissolved in PEG400/water (60/40 v/v). […] Blood loss was quantified gravimetrically by weighing the tubes before and after blood was collected.

Hemophilia B mice = experiment: Tail cut blood loss in Hemophilia B mice; format: in vivo; conditions: 100 mg/kg intravenous in PEG400/water 60/40, 5 min prior to tail cut, 30 min bleeding, vs excipient (FIG. 4)
Experimental: In this Example, the effect of administering an adenosine receptor antagonist on reduction in blood loss in mice with Hemophilia A and Hemophilia B mice was analyzed. Male Hemophilia A or Hemophilia B mice, approximately eight to nine weeks of age and weighing, on average, approximately 25 grams, were used in this Example. The mice were anesthetized with isoflurane and the tails were placed in approximately 37-38° C. warmed 15-ml plastic tubes including 0.9% (by weight) saline for 10 minutes. The tails were then cut at 4 mm from the tip by scalpel and immediately placed back into separate pre-warmed (37-38° C.) 15-ml plastic tubes containing 10 ml of 0.9% (by weight) saline. Each mouse was allowed to bleed freely for 30 minutes. Nineteen mice having Hemophilia B were injected with the third sample of adenosine receptor antagonist solution by intravenous injection in the amount of 100 mg/kg ZM241385 five minutes prior to the tail cut. Nineteen control mice were treated with 100 μl of PEG400/water (60/40 v/v) without any adenosine receptor antagonist prior to the tail cut to serve as an untreated control. Blood loss was quantified gravimetrically by weighing the tubes before and after blood was collected.

Measured: blood loss

Nc1nc(NCCc2ccc(O)cc2)nc2nc(-c3ccco3)nn12 [ZM241385, 4-(2-[7-Amino-2-(2-furyl)[1,2,4]triazolo[2,3-a][1,3,5]triazin-5-ylamino]ethyl)phenol]
reduced blood loss: Hemophilia A mice; 100 mg/kg intraperitoneal in 100% DMSO, 30 min prior to tail cut, vs excipient (FIG. 2) | Hemophilia A mice; 300 mg/kg intraperitoneal in PEG400/ethanol/water 40/10/50, 30 min prior to tail cut, vs excipient (FIG. 3) | Hemophilia B mice
